# Reference: publication PMC10861299, “A Systematic Survey of Reversibly Covalent Dipeptidyl Inhibitors of the SARS-CoV-2 Main Protease” (Journal of Medicinal Chemistry, 2023)
# Where two headings read alike, the source gives them in different places.
# How the values were obtained:
# [1] = target: M^Pro-eGFP fusion protein in 293T cells (Severe acute respiratory syndrome coronavirus 2, UniProt P0DTD1); experiment: cell-based; set-up: species or system SARS-CoV-2
# [2] = target: SARS-CoV-2 main protease (M^Pro) (Severe acute respiratory syndrome coronavirus 2, UniProt P0DTD1); experiment: In vitro M^Pro enzymatic inhibition with fluorogenic substrate Sub3; assay type: biochemical; details: 20 nM M^Pro, 10 μM Sub3, 30 min preincubation; read-out: Enzymatic IC50
# [3] = In vitro metabolic stability in human liver microsomes; details: pH 7.4
# Cytotoxicity, MTT assay = assay type: cell-based; details: human, HEK293T cells, 293T cells
# Protocol: Because of their high antiviral potency, MPI60 and MPI61 were advanced to characterizations of cytotoxicity and in vitro metabolic stability. For the cytotoxicity characterization, we used 293T cells and the MTT assay.[42] […] These CC50 values are similar to that of nirmatrelvir and lead to high calculated selectivity indices (CC50/antiviral EC50) for both compounds. The in vitro metabolic stability analysis for MPI60 and MPI61 was conducted using human liver microsomes.
# HEK293T cells were seeded in 96-well plates and incubated at 37 °C and 5% CO2 for 24 h. The cells were then treated with different concentrations (200, 100, 50, 25, 12.5, 6.25, 3.125, 1.5625, 0.78125, and 0 μM) of the tested compound in triplicate for 48 h. Cell viability was assessed by the MTT assay to determine CC50. For the MTT assay, 20 μL MTT (5 mg/mL) was added to each well and incubated with cells for 4 h. After that, the supernatant was removed, and 200 μL DMSO was added per well. The absorbance was recorded at 490 nm. The CC50 value was determined by plotting the normalized cell viability (%) against the compound concentration.
# Figure S5. Cytotoxicity curves of MPI60 and MPI61 in 293T cells tested by the MTT assay.
# (1 picture or pasted object on this page, not shown here)
# COVID-19 patients = test system: COVID-19 patients; set-up: method as in PMID 34914868; details: patients with mild and moderate COVID-19; cited from earlier work
smiles,measurement,setting,value
"O=C[C@H](C[C@@H]1CCNC1=O)NC(=O)C1CC2(CCCCC2)CN1C(=O)OCc1ccccc1 (stereo partly drawn) [MPI61, Benzyl 3-(((S)-1-Oxo-3-((S)-2-oxopyrrolidin-3-yl)propan-2-yl)carbamoyl)-2-azaspiro[4.5]decane-2-carboxylate]",EC50,[1]; read-out: Cellular EC50,0.085 µM
same,EC50,[1]; read-out: cellular EC50,< 0.1 µM
same,IC50,[2],0.049 µM
same,CLint scaled at 5 μM,[3],45 mL/min/kg
same,half-life at 5 μM,[3],38 min
same,CC50 at 48 h,"Cytotoxicity, MTT assay",230 µM
CC(C)C(=O)OC[C@H]1O[C@@H](n2ccc(NO)nc2=O)[C@H](O)[C@@H]1O [molnupiravir],reduced the risk of hospitalization and death compared to placebo,COVID-19 patients,50%
